{"source": "patent US6294568A", "about": "“5-arylpyrrole derivatives” (priority 1997, dated 2001)", "key": {"[1]": {"target": "T1, Human COX-2 (Homo sapiens, UniProt P35354)", "T1 construct": "endogenous in cells; host or cells: heparinised whole blood of a healthy human donor pretreated with aspirin, stimulated with LPS (own knowledge: COX-2 is induced in monocytes)", "T1 sequence (P35354 18-604)": "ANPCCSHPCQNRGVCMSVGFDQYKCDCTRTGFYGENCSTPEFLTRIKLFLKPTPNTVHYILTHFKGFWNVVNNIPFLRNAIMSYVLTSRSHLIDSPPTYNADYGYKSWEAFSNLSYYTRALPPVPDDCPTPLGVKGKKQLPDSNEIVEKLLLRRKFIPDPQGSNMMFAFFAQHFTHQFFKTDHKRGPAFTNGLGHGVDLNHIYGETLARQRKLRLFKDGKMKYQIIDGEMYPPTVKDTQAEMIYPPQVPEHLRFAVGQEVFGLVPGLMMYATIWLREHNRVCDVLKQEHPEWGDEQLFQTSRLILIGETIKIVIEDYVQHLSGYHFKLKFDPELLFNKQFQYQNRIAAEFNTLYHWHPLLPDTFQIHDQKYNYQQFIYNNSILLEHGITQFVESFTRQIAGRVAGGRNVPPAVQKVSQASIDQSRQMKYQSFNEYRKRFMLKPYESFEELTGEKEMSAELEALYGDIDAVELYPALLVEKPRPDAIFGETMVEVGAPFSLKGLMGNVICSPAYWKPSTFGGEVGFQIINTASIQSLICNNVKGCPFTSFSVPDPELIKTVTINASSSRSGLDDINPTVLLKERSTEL", "settings": "ratio of IC50 COX-1 to COX-2; cited from earlier work"}, "[2]": {"target": "T2, Human COX-1 (Homo sapiens, UniProt P23219)", "T2 construct": "endogenous in cells; host or cells: whole blood of a healthy human donor (own knowledge: TXB2 of clotting blood comes from platelet COX-1)", "T2 sequence (P23219 24-599)": "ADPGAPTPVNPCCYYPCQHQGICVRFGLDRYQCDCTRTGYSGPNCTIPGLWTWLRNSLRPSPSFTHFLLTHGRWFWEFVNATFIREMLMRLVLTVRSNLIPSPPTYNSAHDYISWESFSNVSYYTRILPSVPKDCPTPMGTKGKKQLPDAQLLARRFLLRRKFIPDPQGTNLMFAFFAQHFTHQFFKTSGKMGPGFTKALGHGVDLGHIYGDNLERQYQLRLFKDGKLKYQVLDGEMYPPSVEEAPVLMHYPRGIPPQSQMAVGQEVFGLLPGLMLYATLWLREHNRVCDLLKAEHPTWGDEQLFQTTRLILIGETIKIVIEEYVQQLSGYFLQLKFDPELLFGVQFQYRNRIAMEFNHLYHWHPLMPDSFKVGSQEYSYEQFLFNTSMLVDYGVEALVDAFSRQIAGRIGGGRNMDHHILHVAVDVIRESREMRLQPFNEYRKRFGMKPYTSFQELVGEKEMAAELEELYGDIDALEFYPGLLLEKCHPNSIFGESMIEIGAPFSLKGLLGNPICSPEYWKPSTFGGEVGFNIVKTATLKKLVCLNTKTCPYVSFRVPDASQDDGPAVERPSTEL", "assay": "Human COX-1 Inhibitory Activity Test (TXB2 in blood)", "type": "cell-based", "settings": "IC50 from Hill Plot", "experimental": "COX-1 and COX-2 activities were measured according to the method of Patrignani et al. (J. Pharm. Exp. Ther. Vol. 271, 1705 (1994)).\n(1) COX-1 activity was measured in the following procedure. […] The serum obtained by 10 minutes of centrifugation at 2000 rpm at 4° C. was stored at -40° C. until the measurement of the amount of thromboxane B2 (TXB2). The test samples, which had been dissolved in ethanol and diluted to the specified concentrations, were previously dispensed into the glass test tubes, and the solvent was evaporated to dryness by Centrifugal Vaporizer (CVE-200D, manufactured by Tokyo Rika Mfg. Co., Ltd.) so that the test samples were added to the plasma.\n(3) The measurement for the TXB2 content was conducted in the following procedure. In a part of a 96 well plate coated with anti-rabbit IgG antibody, 2 wells were allotted respectively to blank well, Non-specific Binding (NSB) well, Maximum Binding (B0) well, standard wells at 7 concentrations of TXB2 (1000 pg/ml) in doubling dilution ranging from 1000-15.6 pg/ml. The rest of the wells were used for the measurement of the samples. EIA buffer was added to the NSB wells (100 μl ) and B0 wells (50 μl), respectively. 50 μl of each of the standard dilution was added in an order from thinner to thicker concentrations. Each of the samples was added to the rest of the wells in an amount of 50 μl. Then, 50 μl of TXB2 tracer was added to each of the wells except for the blank wells. Further, 50 μl of TXB2 antibody was added to each of the wells except for the NSB wells and blank wells, then the well plate was covered with a plastic film and the reaction continued for 18 hours at room temperature. When the reaction was terminated, the wells were washed 5 times with a wash buffer. 200 μl of Elman's reagent was added to each of the wells and then the well plate was covered with a plastic film and developed for 60 minutes in a dark place. The absorbance at 405 nm was measured by an Immuno Reader (NJ-2000, manufactured by Nippon Intermed Co., Ltd.). From the measurement result, %B/B0 was calculated and, applying it to the approximation formula of Hill Plot, the concentration of the samples was determined to be 2,000 times concentration. […]"}, "[3]": {"system": "carrageenan footedema", "assay": "Carrageenan Footedema Suppression Test", "type": "in vivo, SD rats", "settings": "oral; paw volume three hours after carrageenan administration", "experimental": "The carrageenin footedema suppression test was conducted according to the method of Winter et al. (J. Pharm. Exp. Ther., Vol.141, 369 (1963)). The test samples suspended in Tween 80 were administered orally to SD rats (6 rats per 1 group) in an amount of 1 ml per 100 g of the body weight, while only the solvent was administered in the same manner as above as a control. One hour after the administration, 1% carrageenan physiological saline was injected subcutaneously to the rats in the plantar area of the right hind paw. Three hours after the carrageenan administration, the paw volumes were measured and the edematization rate (%) was calculated with Formula 1 and then edematization suppression rate (%) was calculated with Formula 2.\nEdematization rate (%)=((paw volume after carrageenan injection- paw volume before carrageenan injection)/(paw volume before carrageenan injection)×100 Formula: 1\nEdematization suppression rate (%)=((edematization rate of control-\nedematization rate of test samples)/edematization rate of […]"}}}
{"smiles": "CS(=O)(=O)c1ccc(-c2[nH]ccc2-c2ccc(F)cc2)cc1", "note": "[Control compound (b), 4-(4-fluorophenyl)-5-(4-methylsulfonylphenyl)-1H-pyrrole, reference compound]", "values": [{"measurement": "COX-1/COX-2 (value specified in the literature)", "setting": "[1]", "value": 29.4}, {"measurement": "IC50", "setting": "[2]", "value": 373, "unit": "µM"}, {"measurement": "Edematization Suppression rate", "setting": "[3]", "value": -1.8, "unit": "%"}]}
